Data taken from patent US20090004171A1, “COMPOUND PROFILING METHOD” (CYTOPATHFINDER, INC., priority 2007, published 2009).

Assays:
SK-BR-3 = SK-BR-3 breast cancer cell; stated as known; cited from earlier work
T-47D cell = conditions: T-47D human derived breast cancer cell, compared with SK-BR-3; cited from earlier work
MCF7 = MCF7 breast cancer cells; cited from earlier work
SHSY5Y cell = assay: Exposure of SHSY5Y neuroblastoma cells to differentiation stimulants (neuron projection extension, marker enzyme expression); format: cell-based; conditions: human neuroblastoma
From the text: The functions of (1) and (2) are different, but share the same properties in terms of extension of neuron projection. Therefore, cellular components necessary for these two intracellular alteration were specified experimentally by means of RNA interference method. As such, it was obtained that the component collection (3) necessary for the alteration from SHSY5Y to (1) are {JAK1, JAK3, ROR, and RET}. On the other hand, the component collection (4) necessary for the alteration from SHSY5Y cells to (2), are {NTRK1, EPHB2, INSR, RDGFRA, ROR and RET}. When comparing and calculation of intersection is done for (3) and (4), the intersection (5) was obtained to read {ROR and RET}. Next, the collection (6) {JAK1 and JAK3} by subtraction of (3)−(5) and the collection (5) were analyzed in terms of an intermolecular interaction, and the existence of a pathway of a molecular signals from (6) to (5) (FIG. 3A) was determined. Furthermore, the collection (7) which was obtained by the subtraction of (4)−(5), and the collection (5) were analyzed in terms of an intermolecular interaction, and the existence of a pathway of molecular signals from (7) to (5) (FIG. 3B) was further determined. The common components and pathway relating to the projection extension by retinoic acid (RA) and Nerve Growth Factor (NGF) are shown in FIG. 4.

Molecule | effect on cell growth (SK-BR-3) | DXR sensitivity (T-47D cell) | DXR sensitivity / resistance (MCF7) | expression of tyrosine hydroxylase (SHSY5Y cell) | extension of neuron projection (SHSY5Y cell)
COc1cccc2c1C(=O)c1c(O)c3c(c(O)c1C2=O)C[C@@](O)(C(=O)CO)C[C@@H]3O[C@H]1C[C@H](N)[C@H](O)[C@H](C)O1 [doxorubicin] | growth inhibition | same DXR sensitivity as the SK-BR-3 | DXR resistance |  | 
Nerve Growth Factor: Nerve Growth Factor, stimulant triggering neurite outgrowth of SHSY5Y cells |  |  |  | tyrosine hydroxylase was expressed | caused extension of neuron projection
